Laboratory results: patent publication US11319324B2, “Pyrazolo-pyrrolo-pyrimidine-dione derivatives as P2X3 inhibitors” (Bayer Aktiengesellschaft, priority 2017, dated 2022)

Key:
Type in all cases: cell-based
human P2X3 receptor [1] = biological target: T1, human P2X3 receptor (Homo sapiens, UniProt P56373); assay: Intracellular calcium measurement to assess antagonist activity at human P2X3 receptors (hP2X3 CHO), photina luminescence; set-up: expressed in transfected cells; host or cells: Chinese hamster ovary (CHO) cells; settings: column 2), CHO cells, agonist α,β-methylene-ATP at EC50
T1 sequence (P56373 1-397): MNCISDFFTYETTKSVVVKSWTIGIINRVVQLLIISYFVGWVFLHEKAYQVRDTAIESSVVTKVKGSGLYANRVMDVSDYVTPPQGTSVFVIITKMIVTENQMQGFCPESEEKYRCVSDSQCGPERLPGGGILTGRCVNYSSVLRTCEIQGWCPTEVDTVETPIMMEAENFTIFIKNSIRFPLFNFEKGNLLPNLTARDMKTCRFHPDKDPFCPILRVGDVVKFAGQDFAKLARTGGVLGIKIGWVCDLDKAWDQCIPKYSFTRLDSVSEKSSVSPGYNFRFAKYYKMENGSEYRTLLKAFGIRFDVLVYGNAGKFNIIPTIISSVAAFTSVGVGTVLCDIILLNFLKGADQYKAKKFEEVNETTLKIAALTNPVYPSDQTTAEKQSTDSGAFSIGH
Outline: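 CHO cells stably expressing human P2X3 and mitochondrial photina, plated the day before at 30 °C, then loaded 3 h at 37 °C in 2 mM Ca-tyrode buffer with 5 μg/ml coelenterazine. Agonist-evoked calcium luminescence read immediately; inhibition seen as signal decrease.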

human P2X2/3 receptors = biological target: T2, human P2X2/3 receptors (Homo sapiens, UniProt P56373+Q9UBL9); assay: Intracellular calcium measurement, antagonist activity at human P2X2/3 receptors (hP2X23 1321N1), Fluo8; settings: for IC50: column 4); 1321N1 cells, human P2X2/3, Fluo8, agonist ATP at EC50; read-out: 4) hP2X2/3 IC50 [nM] (1321N1); for hP2X23/hP2X3* Selectivity (1321N1): ratio of column 4) hP2X2/3 to column 3) hP2X3, 1321N1
T2 construct: expressed in transfected cells; host or cells: human astrocytoma 1321N1 (1312N1 [sic])
T2 sequence (P56373 1-397): T1 sequence (P56373 1-397)
T2 sequence (Q9UBL9 1-471): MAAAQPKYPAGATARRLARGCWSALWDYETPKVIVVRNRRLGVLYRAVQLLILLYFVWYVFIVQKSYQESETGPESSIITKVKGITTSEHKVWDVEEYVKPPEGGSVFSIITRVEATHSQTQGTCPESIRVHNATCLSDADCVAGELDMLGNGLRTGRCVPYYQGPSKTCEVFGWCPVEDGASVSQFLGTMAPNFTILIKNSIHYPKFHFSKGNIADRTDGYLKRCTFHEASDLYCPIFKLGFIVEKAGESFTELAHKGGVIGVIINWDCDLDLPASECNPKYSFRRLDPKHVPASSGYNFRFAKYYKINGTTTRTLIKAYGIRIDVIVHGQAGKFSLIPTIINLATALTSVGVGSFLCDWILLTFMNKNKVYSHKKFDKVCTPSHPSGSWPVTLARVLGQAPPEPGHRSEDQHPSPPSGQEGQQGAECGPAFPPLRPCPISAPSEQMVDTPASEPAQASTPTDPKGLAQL
Outline: (§1)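 Inhibition of ATP-triggered Ca2+ transients is measured in 1321N1 cells expressing P2X3 homotrimers or P2X2/3 heterotrimers.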

human P2X3 receptor [2] = biological target: T1, human P2X3 receptor; assay: Intracellular calcium measurement, antagonist activity at human P2X3 receptors (hP2X3 1321N1), Fluo8; set-up: expressed in transfected cells; host or cells: human astrocytoma 1321N1 (1312N1 [sic]); settings: column 3); 1321N1 cells, human P2X3, Fluo8, agonist ATP at EC50
Outline: as §1

Row | SMILES | IC50 (human P2X3 receptor [1]) [nM] | IC50 (human P2X2/3 receptors) [nM] | hP2X23/hP2X3* Selectivity (1321N1) (human P2X2/3 receptors) | IC50 (human P2X3 receptor [2]) [nM]
1 | CCc1cc2n(CC(=O)Nc3ccc(Br)cn3)c3c(c(=O)n2n1)CN(C(C)C)C3=O [Example 67] | 185 | 6350 | 29 | 217
2 | CCc1cc2n(CC(=O)Nc3ccc(F)cn3)c3c(c(=O)n2n1)CN(Cc1ccncc1)C3=O [Example 106] | 69 | 10500 | 227 | 46
3 | CCc1cc2n(CC(=O)Nc3ccc(F)cn3)c3c(c(=O)n2n1)CN(C1CCOC1)C3=O (racemic) [Example 71, 2-{2-ethyl-5,8-dioxo-6-[(±)-tetrahydrofuran-3-yl]-5,6,7,8-tetrahydro-4H-pyrazolo[1,5-a]pyrrolo[3,4-d]pyrimidin-4-yl}-N-(5-fluoropyridin-2-yl)acetamide] | 111 | > 23000 | >184 | 125
4 | Cc1cc(-c2cc3n(CC(=O)Nc4ccc(F)cn4)c4c(c(=O)n3n2)CN(C(C)C)C4=O)c(C)cn1 [Example 159] | 13 | 1800 | 581 | 3
5 | CC(C)N1Cc2c(n(CC(=O)Nc3ccc(F)cn3)c3cc(N4CCOCC4)nn3c2=O)C1=O [Example 180, N-(5-fluoropyridin-2-yl)-2-[2-(morpholin-4-yl)-5,8-dioxo-6-(propan-2-yl)-5,6,7,8-tetrahydro-4H-pyrazolo[1,5-a]pyrrolo[3,4-d]pyrimidin-4-yl]acetamide] | 175 | > 32000 | >188 | 170
6 | CC(C)N1Cc2c(n(CC(=O)Nc3ccc(F)cn3)c3cc(C(C)(C)O)nn3c2=O)C1=O [Example 88] | 115 | > 23500 | >423 | 56
7 | CC(C)N1Cc2c(n(CC(=O)Nc3ccc(F)cn3)c3cc(C(=O)N(C)CC4CC4)nn3c2=O)C1=O [Example 199] | 11 | 7000 | 1321 | 5
8 | CCc1cc2n(CC(=O)Nc3ccc(F)cn3)c3c(c(=O)n2n1)CN(CC1CCOCC1)C3=O [Example 83] | 370 | > 32000 | >48 | 665
9 | CCc1cc2n(CC(=O)Nc3ccc(F)cn3)c3c(c(=O)n2n1)CN(C1CCOCC1)C3=O [Example 94] | 290 | > 23000 | >56 | 410
10 | CC(C)N1Cc2c(n(CC(=O)Nc3ccc(F)cn3)c3cc(C(=O)N(C)C)nn3c2=O)C1=O [Example 182, 4-{2-[(5-fluoropyridin-2-yl)amino]-2-oxoethyl}-N,N-dimethyl-5,8-dioxo-6-(propan-2-yl)-5,6,7,8-tetrahydro-4H-pyrazolo[1,5-a]pyrrolo[3,4-d]pyrimidine-2-carboxamide] | 109 | > 32000 | >194 | 165
11 | CC(C)N1Cc2c(n(CC(=O)Nc3ccc(F)cn3)c3cc(C(=O)N4CCN(C)CC4)nn3c2=O)C1=O [Example 188] | 91 | > 32000 | >267 | 120
12 | Cc1ccc(-c2cc3n(CC(=O)Nc4ccc(F)cn4)c4c(c(=O)n3n2)CN([C@@H]2CCOC2)C4=O)nc1 [Example 160, N-(5-fluoropyridin-2-yl)-2-[2-(5-methylpyridin-2-yl)-5,8-dioxo-6-[(3R)-oxolan-3-yl]-5,6,7,8-tetrahydro-4H-pyrazolo[1,5-a]pyrrolo[3,4-d]pyrimidin-4-yl]acetamide] | 16 | 2200 | 367 | 6
13 | CC(C)N1Cc2c(n(CC(=O)Nc3ccc(F)cn3)c3cc(C4CCS(=O)(=O)CC4)nn3c2=O)C1=O [Example 229, 2-[2-(1,1-dioxo-1lambda^6-thian-4-yl)-5,8-dioxo-6-(propan-2-yl)-5,6,7,8-tetrahydro-4H-pyrazolo[1,5-a]pyrrolo[3,4-d]pyrimidin-4-yl]-N-(5-fluoropyridin-2-yl)acetamide] | 39 | > 32000 | >1185 | 27
14 | CC(C)N1Cc2c(n(CC(=O)Nc3ccc(F)cn3)c3cc(NCC(F)F)nn3c2=O)C1=O [Example 170] | 59 | > 20400 | >170 | 120
15 | CC(C)N1Cc2c(n(CC(=O)Nc3ccc(F)cn3)c3cc(C(=O)N4CCC4)nn3c2=O)C1=O [Example 223, 2-[2-(azetidin-1-ylcarbonyl)-5,8-dioxo-6-(propan-2-yl)-5,6,7,8-tetrahydro-4H-pyrazolo[1,5-a]pyrrolo[3,4-d]pyrimidin-4-yl]-N-(5-fluoropyridin-2-yl)acetamide] | 23 | 8920 | 158 | 56
16 | CCOC(=O)c1cc2n(CC(=O)Nc3ccc(F)cn3)c3c(c(=O)n2n1)CN(C(C)C)C3=O [Example 70, ethyl 4-{2-[(5-fluoropyridin-2-yl)amino]-2-oxoethyl}-5,8-dioxo-6-(propan-2-yl)-5,6,7,8-tetrahydro-4H-pyrazolo[1,5-a]pyrrolo[3,4-d]pyrimidine-2-carboxylate] | 16 | 1800 | 51 | 36
17 | CC(C)N1Cc2c(n(CC(=O)Nc3ccc(F)cn3)c3cc(C4=CCN(C(=O)OC(C)(C)C)CC4)nn3c2=O)C1=O [Example 143, tert-butyl 4-[4-{2-[(5-fluoropyridin-2-yl)amino]-2-oxoethyl}-5,8-dioxo-6-(propan-2-yl)-5,6,7,8-tetrahydro-4H-pyrazolo[1,5-a]pyrrolo[3,4-d]pyrimidin-2-yl]-3,6-dihydropyridine-1(2H)-carboxylate] | 20 | 6600 | 197 | 34
18 | CC(C)N1Cc2c(n(CC(=O)Nc3ccc(F)cn3)c3cc(NC4CCCC4)nn3c2=O)C1=O [Example 168] | 17 | 2350 | 250 | 9
19 | CC(C)N1Cc2c(n(CC(=O)Nc3ccc(F)cn3)c3cc(C(=O)NC4CC4)nn3c2=O)C1=O [Example 79] | 94 | 4800 | 79 | 61
20 | CC(C)N1Cc2c(n(CC(=O)Nc3ccc(F)cn3)c3cc(Br)nn3c2=O)C1=O [Example 75, 2-[2-bromo-5,8-dioxo-6-(propan-2-yl)-5,6,7,8-tetrahydro-4H-pyrazolo[1,5-a]pyrrolo[3,4-d]pyrimidin-4-yl]-N-(5-fluoropyridin-2-yl)acetamide] | 29 | 4400 | 50 | 89
21 | CCc1cc2n(CC(=O)Nc3ccc(F)cn3)c3c(c(=O)n2n1)CN(C1CCN(S(C)(=O)=O)C1)C3=O (stereo not shown) [Example 272] | 433 | > 32000 | >52 | 610
22 | O=C(Cn1c2c(c(=O)n3nc(C4CC4)cc13)CN(CCN1CCOCC1)C2=O)Nc1ccc(F)cn1 [Example 104] | 69 | > 32000 | >267 | 120
